Assay results: patent US20250312289A1, “METHODS AND COMPOSITIONS COMPRISING TOBACCO MILD GREEN MOSAIC VIRUS (TMGMV)” (priority 2022, published 2025)

Assays:
[1] = cited from earlier work
β-CD-TMGMV = assay: Doxorubicin competition (displacement) assay for loading onto β-CD-TMGMV; type: binding; conditions: competitor at 1000 eq, overnight at 4° C.
Experimental: To assess loading of pesticides to β-CD-TMGMV, competition assays were completed between Doxorubicin (ApexBio) and the target molecules. Samples of 100 μL volume were prepared in a 96-well plate (Costar). For sample wells, 0.0825 mg of β-CD-conjugated TMGMV in KP buffer were added to the wells, in addition with doxorubicin at 10 eqβ-CD-TMIGMV (molar equivalents to β-CD-conjugated TMGMV).
Three control conditions were utilized: 1 eq TMGMV, 575 eq β-CD, and 1 eq TMGMV with 575 eq β-CD (non-conjugated). These control wells also received doxorubicin at 10 eq. The plate was incubated overnight at 4° C. on a plate rocker (Fisher). Fluorescence top readings were conducted on the plate (excitation 470 nm, emission 595 nm, 25 flashes) via UV-Vis Plate Reader (Tecan infinite 200Pro). […] Following a repeat overnight incubation at 4° C. on a plate rocker (Fisher), fluorescent reading was repeated as before.
Samples of 100 μL volume were prepared in a 96-well plate (Costar). For sample wells, 0.0825 mg of β-CD-conjugated TMGMV in KP buffer were added to the wells, in addition with doxorubicin at 10 eq (molar equivalents to β-CD-conjugated TMGMV). […] Fluorescence top readings were then conducted on the plate (excitation 470 nm, emission 595 nm, 25 flashes) via UV-Vis Plate Reader (Tecan infinite 200Pro). […] The fluorescence was then read on the plate reader as described before. […]

TMGMV [2] = assay: Quantification of loaded AI in TMGMV by HPLC; type: physicochemical, Tobacco Mild Green Mosaic Virus; conditions: for Detected in sample / Molecules per CP / Molecules per virion: HPLC
Experimental: (§1) Loading of AI into TMGMV via the “pH method” was performed. TMGMV at a concentration of 1 mg mL^−1 in 10 mM KP buffer at pH 7.5 was kept for 10 days at 4° C. The following AIs were used: fluopyram and clothianidin, (BASF, Berkeley, CA, USA), rifampicin and ivermectin (BioVision; Milpitas, CA, USA). Cy5 (Lumiprobe; Cockeysville, MD, USA) and doxorubicin (ApexBio; Houston, TX, USA) were also studied as proof of concept (fluorescent molecule and cancer chemotherapy). The AI was added to TMGMV by adding an excess of 10:1 AI:coat protein (CP; each TMGMV rod is assembled from ˜2,100 identical CPs) every day until a ratio of 100:1 was reached. During this process the reaction was kept mixing on a rotary shaker. 1 mL aliquots were obtained each day for further analysis.
After AI loading, the aliquots were spin-filtered using 100K molecular weight cut-off 0.5 mL filters (MilliporeSigma, Burlington, MA, USA). 200 μL of the aliquot and 250 μL of KP solution were added and then centrifuged at 16,160×g for 5 minutes at 4° C., the flow-through was discarded, and then 450 μL of KP was added and centrifuged again, this step was repeated 3 times. After the third centrifugation, the filter was inverted in a new tube and centrifuged at 1000×g for 2 minutes, to recover the supernatant and carry out the subsequent characterization.
(§2) Loading of AI into TMGMV via the “DMSO method” was performed. TMGMV in 10 mM KP buffer (pH 7.2) was diluted to 5 mg mL-1 in 2 mL of buffer and transferred to a 25 mL beaker and magnetically stirred at 300 rpm at room temperature. A solution of DMSO and 10 mM KP was added dropwise to dilute the solution to a 20% (v/v) concentration of DMSO and 2 mg mL-1 of TMGMV. Aliquots of the AIs were added dropwise to the solution to prevent precipitation. The solutions were left to stir at room temperature for 24 hours. The samples were collected and spin filtered as described above before being stored at 4° C.
For HPLC, AI was extracted from TMGMV. In brief, the concentration of TMGMV samples was adjusted to 1.2 mg mL-1 in KP. The solution was diluted 4-fold into a 1:1 acetonitrile/:methanol mixture and vortexed for 30 seconds. The solution was centrifuged at 10,000×g for 10 minutes at 4° C. and the organic phase (bottom fraction) was collected and transferred to an HPLC 2 mL glass screw top vial (SureSTART, Thermo Scientific, Waltham, MA, USA).
After a 10-fold dilution in acetonitrile, the extracted samples were injected at 500 μL and run on 5 μm C18 column (20×100 mm) using a Shimadzu LC-40 HPLC system (Columbia, MD, USA). The method was run at 0.5 mL min-1 in a gradient of acetonitrile and 0.02% (v/v) phosphoric acid for 15 minutes per sample. A photodiode array was used to collect absorbance values at 280 nm (fluopyram), 269 nm (clothianidin), 225 nm (ivermectin), and 330 nm (rifampicin). The absorbance values were fitted to a standard curve to identify sample concentration with N=3.

TMGMV [3] = assay: Quantitative TEM width analysis of AI-loaded TMGMV prepared via pH and DMSO methods, Example 6; type: physicochemical, Tobacco Mild Green Mosaic Virus; conditions: negative-stain TEM, native 15.7 nm; for maximum width of AI-loaded TMGMV: pH and DMSO methods
Experimental: as §1, §2
TMGMV samples were diluted to a concentration of 0.05 mg mL-1 and absorbed onto carbon-coated TEM grids (Electron Microscopy Sciences, Hatfield, PA, USA). The grids were then washed three times with pure water. Then, grids were stained by 2% (w/v) uranyl acetate for 90 seconds. TEM was conducted using a FEI Tecnai F30 transmission electron microscope operated at 300 kV. Image analysis was performed using ImageJ software (https://imagej.nih.gov/ij/download.html). To determine the change in width of the nanoparticles, the width of sections of 100 nm in length was measured for standardization purposes. Five different sections were measured per micrography and 30 of them in total per sample. Subsequently, for the complete particle, the length, the perimeter and the area were measured, to later calculate the average width from the perimeter.
TEM imaging and quantitative TEM imaging analysis of the AI-loaded TMGMV nanoparticles prepared by the pH method and the DMSO method was performed. […] To gain insights into the degree of structural changes, quantitative TEM image analysis was performed comparing native vs. the AI-laden TMGMV. Based on the negative stain, native virions were 15.7 nm in width in average (±1.9 nm), which is an underestimation to native TMGMV of 18 nm. This may be due to the uranyl acetate negative staining yielding a heavy shadow on the borders of the virion, apparently reducing its width. While there was no statistical significance between the controls that underwent both methodologies (FIG. 27), for each compound the increment (in comparison to native TMGMV) was different, as well as between methodologies (FIG. 17A).

TMGMV [4] = assay: TEM/ImageJ width of TMGMV infused with AI by partial dissociation (breathing), Example 3; type: physicochemical, Tobacco Mild Green Mosaic Virus; conditions: pH 7.5, 5 days, 500:1 equivalence ratio; TEM; control 18 nm
Experimental: TMGMV at a concentration of 5 mg mL^−1 in KP buffer at pH 7.5 was kept for 5 days at 4° C. Addition of the target AI to the solution was done every 24 h until reaching a 500:1 equivalence ratio and left mixing on a rotary shaker. Afterwards, the solution was centrifuged at 50,000 rpm in the tabletop ultracentrifuge (Beckman Optima MAX-XP with TLA-55 rotor) for 1 hour on a sucrose cushion (30% w/v). The viral pellet was then resuspended in 10 mM KP pH 7 overnight at 4° C. on a rotary shaker. After total resuspension, the solution was dialyzed for 48 h to remove excess (non-entrapped) AI.
Samples were diluted to the concentration of 0.05 mg mL^−1 and absorbed onto carbon-coated TEM grids (Electron Microscopy Sciences). The grids were then washed three times with pure water. Then, grids were stained by 2% (w/v) uranyl acetate for 2 min for imaging. TEM was conducted using a FEI Tecnai F30 transmission electron microscope operated at 300 kV.
Experiments were conducted to load pesticides into TMGMV by strategically altering the pH. Without being bound by theory, this entraps Als through the formation of “pockets” between coat proteins (CPs). Without being bound by theory, the rationale is that by increasing the pH of the buffer, the virus will start to dissociate and hydrophobic pockets will get created between the virion's coat proteins. AIs are then added to interact with the virus particles and then the pH is decreased to promote particles' self-assembly and entrapment of AI on the hydrophobic pockets (see schematic of FIG. 7). As discussed above, TMGMV at a concentration of 5 mg mL-1 in KP buffer at pH 7.5 was kept for at 4° C. for 5 days, and the target AI was added to the solution every 24 h until reaching a 500:1 equivalence ratio. Afterwards, the solution was centrifuged at 50,000 rpm for 1 hour on a sucrose cushion (30% w/v). The viral pellet was then resuspended in 10 mM KP pH 7 overnight at 4° C., and after total resuspension, the solution was dialyzed for 48 h to remove excess (non-entrapped) AI. Samples were then observed at TEM and analyzed using ImageJ.
To determine the change in width (breathing/infusion) of the nanoparticles, the width of sections of 100 nm in length of nanoparticles (as shown in the micrography of FIG. 8) was measured. This was done to standardize the measurements and determine the change in width. At least 5 different sections were measured per micrography, and at least 30 sections were measured in total per sample.

TMGMV [5] = assay: Size exclusion chromatography with absorbance (Beer-Lambert) loading determination; type: physicochemical, Tobacco Mild Green Mosaic Virus; conditions: SEC absorbance 480 nm / 647 nm, Beer-Lambert law
Experimental: TMGMV samples (500 μL at 0.5 mg/mL) were analyzed using a Superose6 Increase 100 GL column and an AKTA Pure25 chromatography system (GE Healthcare, Chicago, Il, USA) using a flow rate 0.5 mL/min in 10 mM KP (pH 7.4). […]
Size exclusion chromatography (SEC) was performed to further verify structural integrity of the AI-laden TMGMV particles during post-processing and purification.

[6] = DMSO method (20% v/v, 24 hours)

Compound	logP [1]	doxorubicin initially bound to β-CD-TMGMV displaced (β-CD-TMGMV)	less loading using DMSO method vs pH method (TMGMV [2]; 24 hour DMSO vs 10-day pH)	Detected in sample (TMGMV [2]; [6])	Molecules per CP (TMGMV [2]; [6])	Molecules per virion (TMGMV [2]; [6])	Detected in sample (TMGMV [2]; pH method (pH 7.5, 10 days))	Molecules per CP (TMGMV [2]; pH method (pH 7.5, 10 days))	Molecules per virion (TMGMV [2]; pH method (pH 7.5, 10 days))	width increase compared to negatively-stained native TMGMV (TMGMV [3])	average width of infused TMGMV (TMGMV [4])	increase in width vs native TMGMV control (TMGMV [4])	loading, molecules per TMGMV (TMGMV [5])	increase in loading using DMSO method vs pH method (TMGMV [2]; 24 hour DMSO vs 10-day pH)	maximum width of AI-loaded TMGMV (TMGMV [3])
CN/C(=N\[N+](=O)[O-])NCc1cnc(Cl)s1 [Clothianidin, clothianidin]	1.3	17.60%	about 10%	2.06 µg/mL	0.47	995	2.29 µg/mL	0.52	1107.55	65%	26 nm	38%	–	–	–
COc1cccc2c1C(=O)c1c(O)c3c(c(O)c1C2=O)C[C@@](O)(C(=O)CO)C[C@@H]3O[C@H]1C[C@H](N)[C@H](O)[C@H](C)O1 [Doxorubicin, doxorubicin]	0.02	–	–	–	–	–	–	–	–	–	35 nm	89%	~615	–	–
O=C(NCCc1ncc(C(F)(F)F)cc1Cl)c1ccccc1C(F)(F)F [Fluopyram, fluopyram]	3.33	18.34%	–	0.61 µg/mL	0.087	185.59	0.05 µg/mL	0.007	–	14%	22 nm	21%	–	11.7 fold	18 nm
CO[C@H]1/C=C/O[C@@]2(C)Oc3c(C)c(O)c4c(O)c(c(/C=N/N5CCN(C)CC5)c(O)c4c3C2=O)NC(=O)/C(C)=C\C=C\[C@H](C)[C@H](O)[C@@H](C)[C@@H](O)[C@@H](C)[C@H](OC(C)=O)[C@@H]1C [Rifampicin, rifampicin]	2.4	–	–	–	–	–	–	–	–	–	–	–	–	–	–
cyanine5 [Cyanine 5]	3.84	–	–	–	–	–	–	–	–	–	–	–	~80	–	–
ivermectin	4.4	–	–	0.44 µg/mL	0.029	61.63	0.02 µg/mL	0.001	2.89	46%	–	–	–	21.3 fold	23 nm
